pIC50: −log10 of the molar value. Where two headings read alike, the source gives them in different places.
How the values were obtained:
[1] = test system: Human umbilical vascular endothelial cells; experiment: Growth factor-induced HUVEC proliferation assay; type: cell-based; conditions: for pIC50: Homo sapiens, Endothelial cell
Experimental: Human Umbilical Vascular Endothelial Cells Proliferation Assay: Human umbilical vascular endothelial cells were thawed and grown in EGM2 medium until passage 3 to 6 for all proliferation assays. Human umbilical vascular endothelial cells were trypsinized, washed with 20% FBS/M199 medium and plated with the same medium at 10^4 cells/100 μL per well to 96-well cell culture plates. The plates were incubated overnight at 37° C. to allow cells to adhere. The cells were then starved in 1% FBS/M199 medium for 18 hours after washing with the same medium 3 times. For optimization of the concentration of the growth factors in the HUVEC proliferation assay, 100 µL/well of the 2× serial diluted growth factors, starting at 100 ng/mL, were added to HUVECs in duplicate for 72 hours at 37° C. in a humidified cell culture incubator with 5% CO2. For analysis of test compounds, a serial dilution of the test compounds in 0.4% DMSO/1% FBS/M199 medium in duplicate was made from the 10 mM stock. Fifty microliters per well of the serially diluted test compounds (10, 1.0, 0.1, 0.01, 0.001, 0.0001, 0.00001 μM) were added to the cells for 1 to 2 hours at 37° C. The final DMSO concentration in the cells is 0.1%. Then 50 μL of 4× final concentration of relative growth factors was added to each well in duplicate for 72 hours at 37° C. in a humidified cell culture incubator with 5% CO2. Thymidine incorporation was measured by adding one microcurie of 3H-thymidine (Amersham) in 20 μL medium to each well and incubated at 37° C. in a humidified cell culture incubator with 5% CO2 for 5 to 6 hours. The cells were then trypsinized and harvested onto UniFilter GF/C filter plates (Perkin Elmer) by using the cell harvester (Tomtec). After the plates were air dried, 20 μL/well of Microscint 20 (Packard) was added then the plates were analyzed in TopCount NXT (Packard). Each well was counted for one minute. The experiments were performed in duplicate in each of 3 donors.
The percentage inhibition of cell proliferation, tube formation, migration, and invasion was calculated by subtracting the result for unstimulated DMSO control from test sample results, averaging all replicates, and normalizing to the growth factor-stimulated DMSO control (0% inhibition). The IC50 values were calculated by using GraphPad Prism 5.0.

[2] = test system: megakaryocyte progenitor cells (normal human bone marrows); experiment: Megakaryocyte colony formation assay; type: cell-based; conditions: for pIC50: Homo sapiens, 14-16 days
Experimental: Colony formation assay was conducted with normal human bone marrows treated in semi-solid collagen matrix with compound/IL-3/IL-6/Tpo for 14-16 days, and the results are summarized in Table 7.

[3] = test system: human peripheral blood mononuclear cells; experiment: Cytokine profiling in LPS-stimulated hPBMC; type: cell-based; conditions: for IL-10 (% of control) / MCP-1 (% of control) / RANTES (% of control): 0.1 μM concentration; for pIC50: Homo sapiens, PBMC, 18 h, LPS 1 ng/ml, 18 hours
Experimental: Fifty ml human buffy coat was aliquoted 25 ml each into two 50 ml conical tubes and 25 ml sterile HBSS was added to each conical tube. The tubes were gently mixed by inverting. Fifteen ml of room temperature Ficoll-Paque Plus (GE Healthcare (location); cat #17-1440-02) was aliquoted into four 50 ml conical tubes. Then 25 ml of the Buffy coat/IBSS mixture was layered gently and slowly on top of the Ficoll. The samples were centrifuged at 450 rpm for 35 minutes. The top layered containing plasma was pipetted off and discarded. The interface containing mononuclear cells was transferred into two 50 ml conical tubes. Both conical tubes were filled to total volume of 50 ml with HBSS and centrifuged at 1200 rpm for 10 minutes. The cells were washed again in HBSS and spun at 1000 rpm for 10 minutes. Cell pellet was resuspended with 20 ml RPMI complete medium (RPMI/5% human sera/1× pen/strep/glut) and counted.
One hundred μl (2×10^6/ml) of hPBMCs were added to each well of a 96 well flat-bottom plate (final cell count=2×10^5/well) and incubated at 37° C. for 1 hour. Twenty μl (10×) compound was added to each test well and twenty μl medium containing 2.5% DMSO was added to each control well ([DMSO]final=0.25%) and plate was incubated for 1 hour at 37° C. Cells were then stimulated with 80 μl of 2.5 ng/ml LPS ([LPS]final=1 ng/ml) and incubated for 18 hours at 37° C. Fifty μl supernatant from each well was transferred into 3 new round-bottomed 96 well plates and stored at −20° C. for Luminex analysis. Duplicate wells were performed for each sample.
Supernatant samples were analyzed for cytokines in multiplex format according to the manufacturer's instructions (Millipore, Billerica, Ma 01821) using a Luminex IS100 instrument. IL-12 and GM-CSF analyses were done in a two-plex format using neat supernatants while all other cytokines were done in a multiplex format using supernatants diluted 1:20. Data analysis was performed using Upstate Beadview software. […] The IC50 were performed using GraphPad Prism v5.00. The data values represent the mean+SEM (standard error of the mean) of n (number of experiments in duplicate).

[4] = test system: U87 Glioblastoma xenograft; experiment: U87 Glioblastoma xenograft model; type: in vivo, mouse; conditions: for U87 tumor growth: 30 mg/kg qd
Experimental: Compounds I, I-R, and I-S were tested in U87 Glioblastoma xenograft model, and the results are depicted in FIG. 25.

[5] = test system: NCI-H929 Multiple Myeloma xenograft; experiment: NCI-H929 Multiple Myeloma xenograft model; type: in vivo, mouse; conditions: for H929 tumor growth: mouse, in vivo; for tumor growth inhibition: day 19
Experimental: Compounds I, I-R, and I-S were tested in NCI-H929 Multiple Myeloma xenograft model, and the results are depicted in FIG. 24.

[6] = read-out: bFGF (10 ng/mL) IC50 Values, bFGF-induced proliferation
[7] = HGF-induced proliferation, read-out: HGF (25 ng/mL) IC50 Values
[8] = VEGF-induced proliferation, read-out: VEGF (25 ng/mL) IC50 Values
[9] = Bone Marrow ID 0090128, read-out: Immature Colony IC50
[10] = Bone Marrow ID 0090128, read-out: Intermediate Colony IC50
[11] = Bone Marrow ID 0090616, read-out: Immature Colony IC50
[12] = Bone Marrow ID 0090616, read-out: Intermediate Colony IC50
[13] = Bone Marrow ID 0090714, read-out: Immature Colony IC50
[14] = Bone Marrow ID 0090714, read-out: Intermediate Colony IC50
[15] = read-out: GM-CSF production IC50
[16] = read-out: IL-1β production IC50
[17] = read-out: MIP-1α production IC50
[18] = read-out: MIP-1β production IC50
[19] = read-out: TNF-α production IC50

pIC50 [3, 15]	pIC50 [3, 16]	pIC50 ([3]; read-out: IL-6 production IC50)	pIC50 ([3]; read-out: IL-8 production IC50)	pIC50 ([3]; read-out: MDC production IC50)	pIC50 [3, 18]	pIC50 [3, 19]	SMILES	inhibition of VEGF-, bFGF-, or HGF-induced HUVEC proliferation [1]	pIC50 [1, 6]	pIC50 [1, 7]	pIC50 [1, 8]	pIC50 [2, 9]	pIC50 [2, 10]	pIC50 [2, 11]	pIC50 [2, 12]	pIC50 [2, 13]	pIC50 [2, 14]	IL-10 (% of control) [3]	MCP-1 (% of control) [3]	RANTES (% of control) [3]	also measured
7.41	8.21	7.08	< 5.00	7.92	< 5.00	8.02	O=C1CC[C@@H](N2Cc3c(OCc4ccc(CN5CCOCC5)cc4)cccc3C2=O)C(=O)N1 [Compound I-R, (R)-3-(4-((4-(morpholinomethyl)benzyl)oxy)-1-oxoisoindolin-2-yl)piperidine-2,6-dione]	did not inhibit	4.12	4.42	< 4.00	5.00	< 5.00	6.40	< 5.00	6.40	< 5.00	442 % of control	223 % of control	151 % of control	
8.66	9.34	8.42	< 5.00	8.68	< 5.00	9.23	O=C1CC[C@H](N2Cc3c(OCc4ccc(CN5CCOCC5)cc4)cccc3C2=O)C(=O)N1 [Compound I-S, (S)-3-(4-((4-(morpholinomethyl)benzyl)oxy)-1-oxoisoindolin-2-yl)piperidine-2,6-dione]	did not inhibit	4.28	4.29	< 4.00	7.10	5.04	7.40	6.19	7.30	6.07	379 % of control	233 % of control	153 % of control	concentrations with significant enhancement of proliferation ([1]; VEGF-treated HUVECs): 1 to 10 µM; effect on megakaryocyte progenitor cells [2]: inhibited megakaryocyte progenitor cells; pIC50 [3, 17]: 7.55; tumor growth inhibition ([4]; 15 mg/kg, day 43, another study): about 47%; U87 tumor growth [4]: significantly inhibited U87 tumor growth; tumor growth inhibition ([4]; 30 mg/kg, day 48): about 60%; tumor growth inhibition ([5]; 0.3 mg/kg): 34%; tumor growth inhibition ([5]; 3 mg/kg): 67%; tumor growth inhibition ([5]; 30 mg/kg): 87%; H929 tumor growth [5]: significantly inhibited H929 tumor growth in a dose-dependent manner

SMILES	pIC50 [3, 15]	pIC50 [3, 16]	pIC50 ([3]; read-out: IL-6 production IC50)	pIC50 ([3]; read-out: IL-8 production IC50)	pIC50 ([3]; read-out: MDC production IC50)	pIC50 [3, 18]	pIC50 [3, 19]	inhibition of VEGF-, bFGF-, or HGF-induced HUVEC proliferation [1]	pIC50 [1, 6]	pIC50 [1, 7]	pIC50 [1, 8]	pIC50 [2, 9]	pIC50 [2, 10]	pIC50 [2, 11]	pIC50 [2, 12]	pIC50 [2, 13]	pIC50 [2, 14]	IL-10 (% of control) [3]	MCP-1 (% of control) [3]	RANTES (% of control) [3]	also measured
O=C1CCC(N2Cc3c(OCc4ccc(CN5CCOCC5)cc4)cccc3C2=O)C(=O)N1 (racemic) [Compound I, 3-(4-((4-(morpholinomethyl)benzyl)oxy)-1-oxoisoindolin-2-yl)piperidine-2,6-dione]	8.04	9.07	8.00	< 5.00	8.59	< 5.00	8.74	did not inhibit	4.00	4.62	< 4.00	6.00 to 7.00	< 5.00	7.22	< 5.00	7.30	< 5.00	372 % of control	208 % of control	153 % of control	concentrations with significant enhancement of proliferation ([1]; bFGF-treated HUVECs): 0.01 to 1 µM; pIC50 [3, 17]: 6.72; U87 tumor growth [4]: significantly inhibited U87 tumor growth; tumor growth inhibition ([4]; 30 mg/kg, day 48): > 80%; H929 tumor growth [5]: significantly inhibited H929 tumor growth in a dose-dependent manner

Reference: US20260007679A1, “METHODS OF TREATING CANCER USING 3-(4-((4-(MORPHOLINOMETHYL)BENZYL)OXY)-1-OXOISOINDOLIN-2-YL)PIPERIDINE-2,6-DIONE” (Celgene Corporation, priority 2012, published 2026)
